# According to ChEMBL document CHEMBL4359841, “Late-Stage Functionalization of Platensimycin Leading to Multiple Analogues with Improved Antibacterial Activity in Vitro and in Vivo” (2019):
# The source made the active and inactive calls. The rule behind the calls is not given here.
# Test system: Staphylococcus aureus
# Test: Inhibition of FabB/FabF in methicillin-resistant Staphylococcus aureus assessed as antibacterial activity at 5 ug/disk after 18 hrs by agar disk diffusion method
row,SMILES,"antibacterial activity (disk diffusion, qualitative)"
1,C[C@]12C[C@@]34C=C(Sc5cccc(-c6ccc(C=O)cc6)c5)C(=O)[C@@](C)(CCC(=O)Nc5c(O)ccc(C(=O)O)c5O)[C@@H]3[C@H](C[C@@H]1C4)O2,Active
2,CCN(CC)CC#Cc1cccc(SC2=C[C@]34C[C@H]5C[C@H](O[C@@]5(C)C3)[C@H]4[C@](C)(CCC(=O)Nc3c(O)ccc(C(=O)O)c3O)C2=O)c1,Active
3,C[C@]12C[C@@]34C=C(Sc5cc(Cl)cc(Cl)c5)C(=O)[C@@](C)(CCC(=O)Nc5c(O)ccc(C(=O)O)c5O)[C@@H]3[C@H](C[C@@H]1C4)O2,Active
4,C[C@]12C[C@@]34C=C(Sc5ccc(-c6ccccc6)cc5)C(=O)[C@@](C)(CCC(=O)Nc5c(O)ccc(C(=O)O)c5O)[C@@H]3[C@H](C[C@@H]1C4)O2,Active
5,C[C@]12C[C@@]34C=C(Sc5cccc(C#Cc6cccc(F)c6)c5)C(=O)[C@@](C)(CCC(=O)Nc5c(O)ccc(C(=O)O)c5O)[C@@H]3[C@H](C[C@@H]1C4)O2,Active
6,C[C@]12C[C@@]34C=C(Sc5cccc(-c6cccnc6)c5)C(=O)[C@@](C)(CCC(=O)Nc5c(O)ccc(C(=O)O)c5O)[C@@H]3[C@H](C[C@@H]1C4)O2,Active
7,C[C@]12C[C@@]34C=C(Sc5cccc(-c6ccco6)c5)C(=O)[C@@](C)(CCC(=O)Nc5c(O)ccc(C(=O)O)c5O)[C@@H]3[C@H](C[C@@H]1C4)O2,Active
8,C[C@]12C[C@@]34C=C(Sc5cccc(/C=C/C(=O)OCCO)c5)C(=O)[C@@](C)(CCC(=O)Nc5c(O)ccc(C(=O)O)c5O)[C@@H]3[C@H](C[C@@H]1C4)O2,Active
9,COc1ccc(C#Cc2cccc(SC3=C[C@]45C[C@H]6C[C@H](O[C@@]6(C)C4)[C@H]5[C@](C)(CCC(=O)Nc4c(O)ccc(C(=O)O)c4O)C3=O)c2)cc1,Active
10,C[C@]12C[C@@]34C=C(Sc5ccc(C#CCN)cc5)C(=O)[C@@](C)(CCC(=O)Nc5c(O)ccc(C(=O)O)c5O)[C@@H]3[C@H](C[C@@H]1C4)O2,Active
11,Cc1ccc(C#Cc2cccc(SC3=C[C@]45C[C@H]6C[C@H](O[C@@]6(C)C4)[C@H]5[C@](C)(CCC(=O)Nc4c(O)ccc(C(=O)O)c4O)C3=O)c2)cc1,Active
12,CCCCCC#Cc1cccc(SC2=C[C@]34C[C@H]5C[C@H](O[C@@]5(C)C3)[C@H]4[C@](C)(CCC(=O)Nc3c(O)ccc(C(=O)O)c3O)C2=O)c1,Active
13,C[C@]12C[C@@]34C=C(Sc5cccc(C#CC6CC6)c5)C(=O)[C@@](C)(CCC(=O)Nc5c(O)ccc(C(=O)O)c5O)[C@@H]3[C@H](C[C@@H]1C4)O2,Active
14,C[C@]12C[C@@]34C=C(Sc5cccc6ccccc56)C(=O)[C@@](C)(CCC(=O)Nc5c(O)ccc(C(=O)O)c5O)[C@@H]3[C@H](C[C@@H]1C4)O2,Active
15,COc1ccccc1-c1cccc(SC2=C[C@]34C[C@H]5C[C@H](O[C@@]5(C)C3)[C@H]4[C@](C)(CCC(=O)Nc3c(O)ccc(C(=O)O)c3O)C2=O)c1,Active
16,CCCCC#Cc1ccc(SC2=C[C@]34C[C@H]5C[C@H](O[C@@]5(C)C3)[C@H]4[C@](C)(CCC(=O)Nc3c(O)ccc(C(=O)O)c3O)C2=O)cc1,Active
17,CC(C)(C)NC(=O)/C=C/c1ccc(SC2=C[C@]34C[C@H]5C[C@H](O[C@@]5(C)C3)[C@H]4[C@](C)(CCC(=O)Nc3c(O)ccc(C(=O)O)c3O)C2=O)cc1,Active

row,SMILES,"antibacterial activity (disk diffusion, qualitative)"
1,CN(C)C(=O)/C=C/c1cccc(SC2=C[C@]34C[C@H]5C[C@H](O[C@@]5(C)C3)[C@H]4[C@](C)(CCC(=O)Nc3c(O)ccc(C(=O)O)c3O)C2=O)c1,Active
2,C[C@]12C[C@@]34C=C(Sc5ccc(-c6cccc(O)c6)cc5)C(=O)[C@@](C)(CCC(=O)Nc5c(O)ccc(C(=O)O)c5O)[C@@H]3[C@H](C[C@@H]1C4)O2,Active
3,CNC(=O)/C=C/c1ccc(SC2=C[C@]34C[C@H]5C[C@H](O[C@@]5(C)C3)[C@H]4[C@](C)(CCC(=O)Nc3c(O)ccc(C(=O)O)c3O)C2=O)cc1,Active
4,CCCCc1ccc(SC2=C[C@]34C[C@H]5C[C@H](O[C@@]5(C)C3)[C@H]4[C@](C)(CCC(=O)Nc3c(O)ccc(C(=O)O)c3O)C2=O)cc1,Active
5,C[C@]12C[C@@]34C=C(Sc5ccccc5C(=O)O)C(=O)[C@@](C)(CCC(=O)Nc5c(O)ccc(C(=O)O)c5O)[C@@H]3[C@H](C[C@@H]1C4)O2,Active
6,C[C@]12C[C@@]34C=C(Sc5c(F)c(F)c(F)c(F)c5F)C(=O)[C@@](C)(CCC(=O)Nc5c(O)ccc(C(=O)O)c5O)[C@@H]3[C@H](C[C@@H]1C4)O2,Active
7,C[C@]12C[C@@]34C=C(Sc5ccc(C#CC6CC6)cc5)C(=O)[C@@](C)(CCC(=O)Nc5c(O)ccc(C(=O)O)c5O)[C@@H]3[C@H](C[C@@H]1C4)O2,Active
8,Cc1occc1SC1=C[C@]23C[C@H]4C[C@H](O[C@@]4(C)C2)[C@H]3[C@](C)(CCC(=O)Nc2c(O)ccc(C(=O)O)c2O)C1=O,Active
9,COC(=O)/C=C/c1ccc(SC2=C[C@]34C[C@H]5C[C@H](O[C@@]5(C)C3)[C@H]4[C@](C)(CCC(=O)Nc3c(O)ccc(C(=O)O)c3O)C2=O)cc1,Active
10,C=CCSC1=C[C@]23C[C@H]4C[C@H](O[C@@]4(C)C2)[C@H]3[C@](C)(CCC(=O)Nc2c(O)ccc(C(=O)O)c2O)C1=O,Active
11,C[C@]12C[C@@]34C=C(Sc5cccc(-c6ccccc6)c5)C(=O)[C@@](C)(CCC(=O)Nc5c(O)ccc(C(=O)O)c5O)[C@@H]3[C@H](C[C@@H]1C4)O2,Active
12,COC(=O)/C=C/c1cccc(SC2=C[C@]34C[C@H]5C[C@H](O[C@@]5(C)C3)[C@H]4[C@](C)(CCC(=O)Nc3c(O)ccc(C(=O)O)c3O)C2=O)c1,Active
13,C[C@]12C[C@@]34C=C(Sc5ccc(Cl)cc5)C(=O)[C@@](C)(CCC(=O)Nc5c(O)ccc(C(=O)O)c5O)[C@@H]3[C@H](C[C@@H]1C4)O2,Active
14,CC(C)(C)C#Cc1cccc(SC2=C[C@]34C[C@H]5C[C@H](O[C@@]5(C)C3)[C@H]4[C@](C)(CCC(=O)Nc3c(O)ccc(C(=O)O)c3O)C2=O)c1,Active
15,CCCCc1ccc(C#Cc2cccc(SC3=C[C@]45C[C@H]6C[C@H](O[C@@]6(C)C4)[C@H]5[C@](C)(CCC(=O)Nc4c(O)ccc(C(=O)O)c4O)C3=O)c2)cc1,Active
16,C[C@]12C[C@@]34C=C(SCc5ccco5)C(=O)[C@@](C)(CCC(=O)Nc5c(O)ccc(C(=O)O)c5O)[C@@H]3[C@H](C[C@@H]1C4)O2,Active
